Source: patent US4727082A, “Dihydropyridine compounds and pharmaceutical compositions containing them” (Yamanouchi Pharmaceutical Co., Ltd., priority 1984, dated 1988)
Read-outs that look alike come from different tables or passages of the source.

Tests used:
[1] = Hemodynamic effects in anesthetized open-chest dogs; type: in vivo, Mongrel dogs; details: Canis lupus familiaris; for change in vivo at 0.3 mg/kg: 0.3 mg/kg iv; for change in vivo at 1 mg/kg: 1.0 mg/kg iv; for change in vivo at 0.1 mg/kg: 0.1 mg/kg iv
Method: Mongrel dogs of either sex were anesthetized with pentobarbital sodium (30 mg/kg iv). The animals were artificially ventilated with room air. The chest was opened at the left 4th intercostal space. Mean arterial blood pressure (MBP), heart rate (HR), left ventricular pressure (LVP), max. dLVP/dt, mean pulmonary arterial blood pressure (MPAP), cardiac output (CO) and coronary blood flow (Cor. BF) were measured. The test compounds were injected into the femoral vein. Hemodynamic effects of these compounds were compared with that of well known Ca^2+ -antagonists. Table 1 (column 1) indicates the percent changes of MBP and Cor. BF from control values induced by intravenous injection of test compounds.

coronary artery = assay: Coronary vasodilating effects, intracoronary injection in anesthetized dogs; type: in vivo, Mongrel dogs; details: for Duration of action of coronary vasodilating effect: intracoronary injection; for ED100 pap (dose for 100% increase of Cor. BF): intracoronary, maximum response to papaverine 300 μg ia = 100%
Method: Mongrel dogs of either sex were anesthetized and ventilated as previously described. A thoracotomy was performed at the 4th intercostal space. Following an intravenous injection of […] (1000 units/kg), blood from the distal end of the cannulated carotid artery was pumped into circumflex branch of the left coronary artery using a servocontrolled peristaltic pump which maintained a constant perfusion pressure of 120 mmHg by means of a pump controller. An electromagnetic flow probe was inserted in the circuit to record blood flow through the cannulated coronary artery. The test compounds were administered directly into the rubber tubing connected close to the coronary artery cannula. Coronary vasodilating potency of the test compounds was by calculating the dose required to produce 100% increase of Cor. BF (ED100 pap), when the maximum responses to papaverine at a dose of 300 μg ia was expressed at 100% response.

Beta-adrenoceptor [2] = molecular target: T1, Beta-adrenoceptor (Rattus norvegicus, UniProt P18090); assay: Beta-adrenoceptor blocking effects: blockade of positive chronotropic response to isoproterenol; type: in vivo, male Wistar rats; details: read-out: Beta Blocking ED50
T1 construct: from tissue; host or cells: heart in situ of anesthetized male Wistar rats (in vivo, i.v. dosing)
T1 sequence (P18090 whole entry): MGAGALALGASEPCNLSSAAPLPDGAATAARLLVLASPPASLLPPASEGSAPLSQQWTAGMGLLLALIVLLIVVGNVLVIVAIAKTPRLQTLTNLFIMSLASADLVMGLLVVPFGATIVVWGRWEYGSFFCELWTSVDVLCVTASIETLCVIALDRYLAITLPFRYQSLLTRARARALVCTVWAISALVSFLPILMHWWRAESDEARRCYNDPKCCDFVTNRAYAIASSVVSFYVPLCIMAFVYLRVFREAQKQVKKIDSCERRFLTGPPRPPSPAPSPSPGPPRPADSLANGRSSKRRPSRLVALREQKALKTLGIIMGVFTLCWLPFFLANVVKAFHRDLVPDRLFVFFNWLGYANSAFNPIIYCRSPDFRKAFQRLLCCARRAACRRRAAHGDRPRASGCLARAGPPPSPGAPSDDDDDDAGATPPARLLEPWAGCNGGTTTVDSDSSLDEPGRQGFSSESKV
Method: (§1) The rats were pretreated with reserpine (8 mg/kg ip), 18 hr before experiments. […] The heart rate was measured with a cardiotachometer triggered by the QRS of the ECG (lead II) and recorded on a polygraph. After the control response to isoproterenol at a dose of 0.1 μg/kg iv was obtained, the test compound was injected iv in increasing doses at 20 min intervals.

Beta-adrenoceptor [3] = molecular target: T1, Beta-adrenoceptor; assay: Intrinsic sympathomimetic activity (ISA), increase in heart rate; type: in vivo, male Wistar rats; details: increase in HR, reserpinized rats, iv
Method: as §1
In this series of experiments, intrinsic sympathomimetic activity (ISA) was also evaluated. The results are shown in Table 1 (column 4), wherein "-" represents that an increase in HR was scarcely observed, "+" represents an increase in HR of 10 to 19 beats/min, "++" represents an increase in HR of 20 to 29 beats/min, and "+++" represents an increase in HR of above 30 beats/min.

[4] = read-out: Cor. BF, percent change from control
[5] = read-out: MBP, percent change from control
[6] = 50% blockade of chronotropic response to isoproterenol 0.1 μg/kg iv, reserpinized, vagotomized rats, cumulative dose

SMILES | change in vivo at 0.3 mg/kg [1, 4] [%] | change in vivo at 0.3 mg/kg [1, 5] [%] | Duration of action of coronary vasodilating effect (coronary artery) [min] | ED100 pap (dose for 100% increase of Cor. BF) (coronary artery) [μg ia] | ED50 (Beta-adrenoceptor [2]; [6]) [mg/kg] | ISA (Beta-adrenoceptor [3]) | change in vivo at 1 mg/kg [1, 4] [%] | change in vivo at 1 mg/kg [1, 5] [%] | ED50 (Beta-adrenoceptor [2]; iv) [mg/kg] | change in vivo at 0.1 mg/kg [1, 4] [%] | change in vivo at 0.1 mg/kg [1, 5] [%]
COC(=O)C1=C(C)NC(C)=C(C(=O)OC)C1c1cc([N+](=O)[O-])ccc1OCCCCCNCC(O)COc1ccccc1 (stereo not drawn) [Example 12, dimethyl 4-[2-[5-(2-hydroxy-3-phenoxypropylamino)pentyloxy]-5-nitrophenyl]-2,6-dimethyl-1,4-dihydropyridine-3,5-dicarboxylate] | 14 | -18 | > 60 | 475 | 2.58 | - |  |  |  |  | 
CCOC(=O)C1=C(C)NC(C)=C(C(=O)OC)C1c1cc([N+](=O)[O-])ccc1OCCCCNCC(O)COc1ccccc1 (stereo not drawn) [Example 10, ethyl methyl 4-[2-[4-(2-hydroxy-3-phenoxypropylamino)butoxy]-5-nitrophenyl]-2,6-dimethyl-1,4-dihydropyridine-3,5-dicarboxylate] | 26 | -12 | > 60 | 400 | 0.73 | - |  |  |  |  | 
CCOC(=O)C1=C(C)NC(C)=C(C(=O)OCC)C1c1cc([N+](=O)[O-])ccc1OCCCCNCC(O)COc1ccccc1 (stereo not drawn) [Example 18, diethyl 4-[2-[4-(2-hydroxy-3-phenoxypropylamino)butoxy]-5-nitrophenyl]-2,6-dimethyl-1,4-dihydropyridine-3,5-dicarboxylate] | 20 | -13 | 60 | 285 | 3.11 | - |  |  |  |  | 
COC(=O)C1=C(C)NC(C)=C(C(=O)OC)C1c1cc(SC)ccc1OCCCCNCC(O)COc1ccccc1.Cl (stereo not drawn) [Example 28, dimethyl 4-[2-[4-(2-hydroxy-3-phenoxypropylamino)butoxy]-5-methylthiophenyl]-2,6-dimethyl-1,4-dihydropyridine-3,5-dicarboxylate hydrochloride] |  |  | 30 | 555 |  | - | 70 | -28 | 0.27 |  | 
COC(=O)C1=C(C)NC(C)=C(C(=O)OC)C1c1cc(S(C)(=O)=O)ccc1OCCCCNCC(O)COc1ccccc1 (stereo not drawn) [Example 23, dimethyl 4-[2-[4-(2-hydroxy-3-phenoxypropylamino)butoxy]-5-methylsulfonylphenyl]-2,6-dimethyl-1,4-dihydropyridine-3,5-dicarboxylate] |  |  | > 60 | 780 | 0.03 | - | 64 | -32 |  |  | 
COC(=O)C1=C(C)NC(C)=C(C(=O)OC)C1c1cc([N+](=O)[O-])ccc1OCCCCNCC(O)COc1ccc(NC(C)=O)cc1 (stereo not drawn) [Example 42, dimethyl 4-[2-[4-[3-(p-acetamidophenoxy)-2-hydroxypropylamino]butoxy]-5-nitrophenyl]-2,6-dimethyl-1,4-dihydropyridine-3,5-dicarboxylate] |  |  | > 60 | 515 | 0.5 | - | 8 | -13 |  |  | 
COc1ccc([C@@H]2Sc3ccccc3N(CCN(C)C)C(=O)[C@@H]2OC(C)=O)cc1 [Diltiazem, reference compound] | 90 | -30 | 20 | 51 |  |  |  |  |  |  | 
COC(=O)C1=C(C)NC(C)=C(C(=O)OC)C1c1cc(Cl)ccc1OCCCCNCC(O)COc1ccccc1 (stereo not drawn) [Example 24, dimethyl 4-[5-chloro-2-[4-(2-hydroxy-3-phenoxypropylamino)butoxy]phenyl]-2,6-dimethyl-1,4-dihydropyr idine-3,5-dicarboxylate] |  |  | 60 | 245 | 1.5 | - | 62 | -33 |  |  | 
COC(=O)C1=C(C)NC(C)=C(C(=O)OC)C1c1cc([N+](=O)[O-])ccc1OCCNCC(O)COc1ccccc1 (stereo not drawn) [Example 1, dimethyl 4-[2-[2-(2-hydroxy-3-phenoxypropylamino)ethoxy]-5-nitrophenyl]-2,6-dimethyl-1,4-dihydropyridine-3,5-dicarboxylate] | 69 | -17 | 15 | 75 | 0.13 | +++ (an increase in HR of above 30 beats/min) |  |  |  | 21 | -7
COC(=O)C1=C(C)NC(C)=C(C(=O)OC)C1c1cc([N+](=O)[O-])ccc1OCCCCNC[C@@H](O)COc1ccccc1 [Example 17, (R)-(+)-dimethyl 4-[2-[4-(2-hydroxy-3-phenoxypropylamino)butoxy]-5-nitrophenyl]-2,6-dimethyl-1,4-dihydropyridine-3,5-dicarboxylate] |  |  | > 60 | 158 | 3.53 | - | 94 | -35 |  |  | 
COC(=O)C1=C(C)NC(C)=C(C(=O)OC)C1c1cc(OC)ccc1OCCCCNCC(O)COc1ccccc1 (stereo not drawn) [Example 26, dimethyl 4-[2-[4-(2-hydroxy-3-phenoxypropylamino)butoxy]-5-methoxyphenyl]-2,6-dimethyl-1,4-dihydropyridine-3,5-dicarboxylate] |  |  | 40 | 600 | 0.53 | - | 43 | -38 |  |  | 
COC(=O)C1=C(C)NC(C)=C(C(=O)OC)C1c1cc([N+](=O)[O-])ccc1OCCCCNCC(O)COc1ccccc1 (stereo not drawn) [Example 15, dimethyl 4-[2-[4-(2-hydroxy-3-phenoxypropylamino)butoxy]-5-nitrophenyl]-2,6-dimethyl-1,4-dihydropyridine-3,5-dicarboxylate] |  |  | > 60 | 228 | 0.7 | - | 96 | -33 |  |  | 
COC(=O)C1=C(C)NC(C)=C(C(=O)OC)C1c1cc([N+](=O)[O-])ccc1OCCCNCC(O)COc1ccccc1 (stereo not drawn) [Example 8, dimethyl 4-[2-[3-(2-hydroxy-3-phenoxypropylamino)propoxy]-5-nitrophenyl]-2,6-dimethyl-1,4-dihydropyridine-3,5-dicarboxylate] |  |  | 60 | 645 | 0.31 | + (an increase in HR of 10 to 19 beats/min) | 10 | -29 |  |  | 
COC(=O)C1=C(C)NC(C)=C(C(=O)OC)C1c1cc([N+](=O)[O-])ccc1OCCCCNC[C@H](O)COc1ccccc1 [Example 16, (S)-(-)-dimethyl 4-[2-[4-(2-hydroxy-3-phenoxypropylamino)butoxy]-5-nitrophenyl]-2,6-dimethyl-1,4-dihydropyridine-3,5-dicarboxylate] |  |  | > 60 | 162 | 0.39 | - | 97 | -31 |  |  | 
COC(=O)C1=C(C)NC(C)=C(C(=O)OC)C1c1ccccc1OCCCCNCC(O)COc1ccccc1 (stereo not drawn) [Example 34, dimethyl 4-[o-[4-(2-hydroxy-3-phenoxypropylamino)butoxy]phenyl]-2,6-dimethyl-1,4-dihydropyridine-3,5-dicarboxylate] | 3 | -18 | > 60 | 175 | 0.9 | - |  |  |  |  | 
